{
  "source": "patent US10709724B2",
  "about": "“Methods of treating mitochondrial dysfunction” (Ecole Polytechnique Federale de Lausanne (EPFL), priority 2011, dated 2020)",
  "assay_type_in_all_cases": "in vivo",
  "key": {"C57Bl/6J mice [1]": {"tested_on": "C57Bl/6J mice", "assay": "NAD+ metabolism in tissues after chronic NR feeding", "description": "mRNA and mtDNA Analysis. Total RNA was prepared using TRIzol (Invitrogen) according to the manufacturer's instructions. RNA was treated with DNase, and 2 μg of RNA was used for reverse transcription (RT). cDNA was purified on QIAquick PCR cleanup columns (Qiagen, Valencia, Calif., USA). 50× diluted cDNA was used for RT-quantitative PCR (RT-VCR) VCR) reactions (Bai et al., 2007). The RT-qPCR reactions were performed using the Light-Cycler system (Roche Applied Science) and a qPCR Supermix (Qiagen) with the primers for mice summarized in Table 1 and 4, and with the primers for worms summarized on Table 7. mtDNA quantification was performed as described (Lagouge et al., 2006) with the primers indicated in Table 2 and 5.\nImmunoprecipitation, SDS-PAGE, Western Blotting. Cells were lysed in lysis buffer (50 mM Tris, […], EDTA 1 mM, NP40 1%, nicotinamide 5 mM, Na-butyrate 1 in M, protease inhibitors pH7.4). Proteins were separated by SDS-PAGE and transferred onto nitrocellulose membranes. The origin of the primary and secondary antibodies used can be found as supplemental experimental procedures. Reactions were developed by enhanced chemiluminescence (Amersham, Little Chalfont, UK), PGC-1α, FOXO1 and Ndufa9 acetylation levels were analyzed by immunoprecipitation from cellular or nuclear lysates of tissues with anti-PGC-1α (Millipore), anti-FOXO1 (Cell Signaling, Danvers, Mass., USA) and anti-Ndufa9 (Abcam) antibody followed by Western blot using an acetyl-lysine antibody (Cell Signaling) that was normalized to total PGC-1a/FOXO1/Ndufa9 levels (Lagouge et al., 2006; Rodgers et al., 2005). In HEK293T cells HA-tagged PGC-1α was overexpressed and was immunoprecipitated using an anti-HA. In C2C12 myotubes, FLAG-HA tagged PGC-1α was introduced through adenoviral delivery 2 days before treatments, then IP was performed using anti-FLAG antibody and samples were processed as described. All blots were quantified by densitometry using ImageJ software. Poly(ADP-Ribose) detection was performed as previously described with slight modifications (Bai et al., PARP-1 inhibition increases mitochondrial metabolism through SIRT1 activation. Cell Metab 13, 461-468. (2011)) Briefly, PAR was detected by using a monoclonal anti-PAR antibody (Alexis, Lausanne Switzerland) by Western blotting of total protein lysates, using either […] of total worm protein lysates, […] of liver protein lysate or 200 g of muscle total protein extracts. PGC-1 acetylation was determined using PGC-1 immunoprecipitates from 2 mg of protein extracts, as described in Canto et al. (Canto et al., AMPK regulates energy expenditure by modulating NAD+ metabolism and SIRT1 activity. Nature 458, 1056 (2009)).\nNAD^+ NAM Determination. NAD^+ levels in cultured cells were determined using a commercial kit (Enzychrom™, BioAssays Systems, CA). For tissue samples NAD^+ and NAM levels were determined as described in (Sauve et al., 2005). In brief, to a weighed aliquot of frozen pulverized tissue we added as standards, ^18O-NAD^+ (typically 2.00 nmol) and ^18O-NAM (typically 2.00 nmol). 70 L of ice-cold 7% perchloric acid was then added and the sample was vortexed and sonicated three times, then centrifuged. Clear supernatant was removed and neutralized by additions of 3 M NaOH and 1 M phosphate buffer (pH=9), then centrifuged. Clear supernatant was injected onto HPLC C-18 column with 20 mM ammonium acetate eluent to separate NAD^+ and NAM from other cellular components, NAD^+ and NAM peaks (260 nm absorbance) were collected. Collections were lyophilized to dryness and subjected to MALDI-TOF analysis. For NAD^+ measurement, ratio of intensities for m/z=664 and 666 peaks, corresponding to ^16O- and ^18O-NAD^+ isotopomers, was multiplied by 2.00 nmol and then divided by tissue weight to determine NAD+ concentration in the sample. […]"}, "C57Bl/6J mice [2]": {"tested_on": "C57Bl/6J mice", "assay": "Hyperinsulinemic-euglycemic clamp in CD and CD-NR mice", "settings": "4 weeks of treatment", "description": "Hyperinsulinemic-euglycemic clamps were performed as described (Lagouge et al., 2006)."}, "C. elegans": {"tested_on": "C. elegans", "assay": "Worm lifespan analysis", "settings": "for variation compared to control (%): vs N2 + water", "description": "Worm Lifespan Analysis Lifespan tests were performed as described in Mouchiroud et al (L. Mouchiroud et al., Pyruvate imbalance mediates metabolic reprogramming and mimics lifespan extension by dietary restriction in Caenorhabditis elegans. Aging Cell 10, 39 (2011)). Briefly, 60-100 animals were used per conditions and scored every other day. All lifespan experiments were performed at 20° C. […] Animals were exposed to compounds during the full life from eggs until death. To ensure a permanent exposure to the compound, plates were changed twice a week. All the compounds used in this study were dissolved in a water stock solution."}},
  "note": "Values joined by “and” are separate entries in the source; they are usually repeats but may differ in a detail not shown here. Identical values can stand only once. “Also recorded” adds a separate entry of the source.",
  "data": [
    {"smiles": "NC(=O)c1ccc[n+]([C@@H]2O[C@H](CO)[C@@H](O)[C@H]2O)c1", "note": "[NR, nicotinamide riboside]", "values": [
      {"measurement": "NAD+ levels in liver and muscle", "setting": "C57Bl/6J mice [1]; CD and HFD, chronic NR 400 mg/kg/day", "value": "increased NAD^+ levels"},
      {"measurement": "NAD+ in BAT", "setting": "C57Bl/6J mice [1]; chronic NR 400 mg/kg/day", "value": "higher in the BAT of NR-fed mice, but only on HFD"},
      {"measurement": "NAD+ levels in brain or white adipose tissue (WAT)", "setting": "C57Bl/6J mice [1]; chronic NR 400 mg/kg/day", "value": "but not in others, such as brain or white adipose tissue (WAT)"},
      {"measurement": "NADH levels in muscle", "setting": "C57Bl/6J mice [1]; gastrocnemius, HFD 16 weeks", "value": "largely diminished"},
      {"measurement": "nicotinamide (NAM) levels in muscle", "setting": "C57Bl/6J mice [1]; gastrocnemius, HFD 16 weeks", "value": "largely diminished"},
      {"measurement": "Nampt mRNA and protein levels", "setting": "C57Bl/6J mice [1]; quadriceps, HFD 16 weeks", "value": "levels were also similar"},
      {"measurement": "mRNA expression of NMNAT enzymes", "setting": "C57Bl/6J mice [1]; quadriceps, HFD 16 weeks", "value": "could not detect differences"},
      {"measurement": "glucose infusion rate to maintain euglycemia, vs vehicle", "setting": "C57Bl/6J mice [2]", "value": "~2", "unit": "fold"},
      {"measurement": "insulin-induced muscle glucose uptake", "setting": "C57Bl/6J mice [2]", "value": "very marked increase"},
      {"measurement": "mean lifespan ± SE", "setting": "C. elegans; N2, 200 nM", "value": "21.1 ± 0.88", "unit": "days"},
      {"measurement": "variation compared to control (%)", "setting": "C. elegans; N2, 200 nM", "value": "+17.9%"},
      {"measurement": "mean lifespan ± SE", "setting": "C. elegans; N2, 500 nM", "value": "23.5 ± 0.56 days and 24.9 ± 0.68 days and 20.6 ± 1.02 days"},
      {"measurement": "mean lifespan ± SE", "setting": "C. elegans; N2, 1000 nM", "value": "20.0 ± 0.89", "unit": "days"},
      {"measurement": "variation compared to control (%)", "setting": "C. elegans; N2, 1000 nM", "value": "+11.7%"},
      {"measurement": "lifespan in daf-16 mutant worms", "setting": "C. elegans; daf-16(mu86) mutant worms", "value": "completely abolished; also recorded: daf-16-dependent"},
      {"measurement": "mean lifespan ± SE", "setting": "C. elegans; daf-16(mu86), 500 nM", "value": "19.1 ± 0.51", "unit": "days"},
      {"measurement": "variation compared to control (%)", "setting": "C. elegans; daf-16(mu86), 500 nM", "value": "−7.8", "unit": "%"},
      {"measurement": "lifespan in sir-2.1(ok434) mutant / sir-2.1 dependence", "setting": "C. elegans; sir-2.1(ok434) mutant worms", "value": "sir-2.1-dependent fashion; also recorded: sir-2-dependent manner"},
      {"measurement": "mean lifespan ± SE", "setting": "C. elegans; sir-2.1(ok434), 500 nM", "value": "23.2 ± 0.61", "unit": "days"},
      {"measurement": "variation compared to control (%)", "setting": "C. elegans; sir-2.1(ok434), 500 nM", "value": "+12.0%"},
      {"measurement": "lifespan", "setting": "C. elegans; wild type N2 worms", "value": "extended lifespan; also recorded: increases"}
    ]}
  ]
}
